Patent publication EP0563814A2, “Carbonic acid esters of 2-amino-7-(1,3-dihydroxy-2-propoxymethyl)purines, their preparation and their use as antiviral agents” (HOECHST AKTIENGESELLSCHAFT, priority 1992, dated 1993)
Read-outs that look alike come from different tables or passages of the source.

Key:
[1] = system: Herpes simplex 1 Virus (HSV-1); experiment: Activity against systemic HSV-1 infection in the NMRI mouse, oral treatment; type: in vivo, NMRI-Mäuse; conditions: i.p. infection, observation two weeks
Source text: Wirkung gegen systemische Herpes simplex 1 Virus (HSV-1) Infektion: NMRI-Mäuse, spezifisch pathogenfrei, im Gewicht von 15-18 g wurden intraperitoneal mit HSV-1 infiziert und anschließend mit den erfindungsgemäßen Verbindungen oral therapiert. Die Behandlung erfolgte erstmals 3 Stunden nach der Infektion und wurde zweimal täglich über 4 Tage fortgesetzt. Der Behandlungserfolg wurde anhand des Krankheitsverlaufes und der Überlebensrate gegenüber der unbehandelten Infektionskontrolle bestimmt. Letztere erhielt anstelle der erfindungsgemäßen Verbindungen physiologische Kochsalzlösung appliziert. Die Beobachtungszeit betrug zwei Wochen. Tabelle 1 zeigt die Ergebnisse dieser Untersuchung. Tabelle 1

[2] = Oral bioavailability in the mouse; type: in vivo, Maus; conditions: for AUC(0-inf): analyte Formel 1', read-out: AUD (0-->oo) (converted)
Source text: Folgende Bioverfügbarkeiten der Verbindungen der Formel 1' wurden bei Mäusen nach oraler Gabe der erfindungsgemäßen Verbindungen ermittelt: […]

SMILES	mittlere Überlebenszeit (Tage) ([1]; 9 x 10 µmol/kg)	Überlebende/ Gruppengröße ([1]; 9 x 10 µmol/kg)	mittlere Überlebenszeit (Tage) ([1]; 9 x 30 µmol/kg)	Überlebende/ Gruppengröße ([1]; 9 x 30 µmol/kg)	mittlere Überlebenszeit (Tage) ([1]; 9 x 100 µmol/kg)	Überlebende/ Gruppengröße ([1]; 9 x 100 µmol/kg)	Bioverfügbarkeit ([2]; i.v., 25 mg/kg, availability of Formel 1') [%]	AUC(0-inf) ([2]; in vivo, iv, 25 mg/kg) [ng·h/mL]	AUC(0-inf) ([2]; in vivo, po, 100 mg/kg) [ng·h/mL]	bioavailability ([2]; in vivo, po, 100 mg/kg, availability of Formel 1', read-out: Bioverfügbarkeit) [%]
CC(=O)OCC(COC(C)=O)OCn1cnc2nc(N)ncc21 [Beispiel 1, 2-Amino-7-[(1,3-bis-acetoxy-2-propoxy)methyl]purin]	> 14	5/5	> 14	5/5	> 14	5/5				
CCCC(=O)OCC(COC(=O)CCC)OCn1cnc2nc(N)ncc21 [Beispiel 2, 2-Amino-7-[(1,3-bis-butyryloxy-2-propoxy)methyl]purin]				5/5		5/5				
CCC(=O)OCC(COC(=O)CC)OCn1cnc2nc(N)ncc21 [Beispiel 3, 2-Amino-7-[(1,3-bis-propionyloxy-2-propoxy)methyl]purin]				5/5		5/5				
Nc1ncc2c(ncn2COC(CO)CO)n1 [Formel 1', 2-Amino-7-[(1,3-dihydroxy-2-propoxy)methyl]purin, reference compound]	10.5 ± 0.7	3/5	9.5 ± 1.3	1/5		5/5	100	223	154	17.2
